Data on 16 compounds can be found in patent US20250188062A1, “TRIAZINE COMPOUNDS AND METHODS OF MAKING AND USING THE SAME” (Athos Therapeutics, Inc., priority 2021, published 2025).

For one experiment, the target named is JMJD3 (Homo sapiens, UniProt O15054). The experiment is described as follows: JMJD3 binding assay (Kd, affinity beads, qPCR readout). The following applies: 11-point 3-fold dilution series, 0.9% DMSO, room temperature 1 hour; read-out: JMJD3 Affinity (binding constant, Kd). The protocol: Test compounds were prepared as 111X stocks in 100% DMSO. Kd values are determined using an 11-point 3-fold compound dilution series with three DMSO control points. All compounds for Kd measurements were distributed by acoustic transfer (non-contact dispensing) in 100% DMSO. The compounds were then diluted directly into the assays such that the final concentration of DMSO was 0.9%. All reactions were performed in polypropylene 384-well plate. Each was a final volume of 0.02 ml. The assay plates were incubated at room temperature with shaking for 1 hour and the affinity beads were washed with wash buffer (lx PBS, 0.05% Tween 20). The beads were then re-suspended in elution buffer (lx PBS, 0.05% Tween 20, 0.5 μM non-biotinylated affinity ligand) and incubated at room temperature with shaking for 30 minutes. The kinase concentration in the eluates was measured by qPCR. Binding constants are calculated with a standard dose-response curve using the Hill equation:
The Hill Slope was set to −1. Curves were fitted using a non-linear least square fit with the Levenberg-Marquardt algorithm. The binding data is summarized in Table 2 where A is less than 100 nM, B is 100 to 500 nM, and C is greater than 500 nM.

For experiment [1], the system named is THP-1 human monocytes. The experiment is described as follows: TNF-alpha ELISA (Quantikine) in LPS-treated THP-1 cells. The following applies: 1 μM, 4 hrs before LPS 50 ng/ml; PMA 25 nM; ELISA of supernatants; FIG. 4A-C, p<0.05 / p<0.01. Type of experiment: cell-based. The protocol:
THP-1 cells were grown to confluence and plated in 6-well plates. PMA (25 nM) was added to the medium and replaced with non-PMA containing medium 24 hrs later. ATH compounds (1 μM) or vehicle (0.1% DMSO) were added and allowed to incubate. After 4 hrs LPS (50 ng/ml) was added without replacement of the medium and supernatants were collected after 4 and […]. Media were placed on ice for cytokine detection using ELISA (Quantikine, R&D Systems).
JMJD3 inhibitors Compound 89, Compound 91 (FIG. 4A, p<005), Compound 97, Compound 92, Compound 93 (FIG. 4B, p<0.01), and Compound 94 (FIG. 4C, p<0.01) show suppression of TNF-alpha (TNFA) expression after LPS (lipopolysaccharide) treatment, in THP-1 human monocytes (FIG. 4A-C, p<0.05 for both).
A general note: An ELISA detects its analyte on a solid surface through an enzyme-linked reagent.

Experiment [2] concerns THP-1 human monocytes. The experiment is described as follows: Cellular assay for anti-inflammatory properties: cytokine ELISA multiplex in LPS-stimulated PMA-differentiated THP-1 macrophages. Format: cell-based. The following applies: 1 μM, 4 hours before 100 ng/mL LPS for 4 or 24 hours; cytokine protein in media vs LPS+PMA only. The protocol: The anti-inflammatory properties of five JMJD3 inhibitors (99, 92, 93, 98, and 95, in no particularly order) were evaluated in an immune cellular assay targeting key pro-inflammatory cytokines involved in the pathogenesis of multiple autoimmune disease.
Specifically, THP-1 human monocytes were grown in 6-well plates (RPMI 1640+10% FBS+1% P/S). After washing with PBS the THP-1 cells were differentiated into macrophages using 20 nM of phorbol 12-myristate 13-acetate (PMA) for 24 hrs. 99, 92, 93, 98, and 95) (1 μM) were added into the macrophages, which are incubated for 4 hours before the addition of 100 ng/mL lipopolysaccharide (LPS) for either 4 or 24 hours. Next, the macrophages are collected via centrifugation at 1.2K rpm for 5 min and use their media to evaluate cytokine protein levels by using the Bio-rad Cytokine ELISA multiplex assay (cat. No M5000031YV). The supernatants from macrophages treated only with only LPS+PMA were collected and used as negative controls.

For the next experiment, the system named is Naïve CD4+ T human cells. The experiment is described as follows: Cellular assay for FoxP3 induction activity (qPCR of FoxP3 mRNA). Type of experiment: cell-based. The following applies: CD4+ T cells activated with anti-CD3, IL-2 and TGF-β for 5 days; FoxP3 mRNA by qPCR on day 5; FIG. 3. The protocol:
CD4+CD25+FOXP3+ regulatory T cells (Tregs) suppress pro-inflammatory cells and signals and are critical mediators of tolerance, inhibiting excessive inflammation and autoimmunity. Also, treatment of CD4+ T cells with interleukin 2 (IL-2) and transforming growth factor beta (TGF-β) signaling are important for FOXP3 induction and Treg formation.
Naïve CD4+ T human cells (cat. no 2W-200, Lonza) were cultured and activated with artificial antigen-presenting cells and soluble anti-CD3 (100 ng/ml) in the presence of IL-2 (300 U/ml) and TGF-β (10 ng/ml) for 5 days. On day 3, cells were transfected with an anti-sense RNA against JMJD3 (cat. No 1299001, Thermo) using Lipofectamine 2000 (cat. No 11668027, Thermo). On day 5, RNA was extracted and qPCR analysis was performed to evaluate FoxP3 mRNA levels by using the following primers: F: 5′-TCCACAACATGCGACCCCCTTTCA-3′ and R: 5′-ACAGCCCCCTTCTCGCTCTCCA-3′ having a 217 bp product. All JMJD3 inhibitors (99, 92, 93, 98, and 95) in CD4+ T cells induced 7-fold FoxP3 expression levels, thus moving towards differentiation and formation of Tregs. […] Thus, genetic or pharmacological inhibition of […] will result into FoxP3 activation and induction of Treg formation. Based on this evidence, JMJD3 inhibitors (99, 92, 93, 98, and 95)) could be used in autoimmune diseases where T-regulatory cells have therapeutic potential. There is increasing evidence and literature derived from human clinical studies (Arellano B et al., Regulatory T Cell-based Therapies for Autoimmunity, Discov Med, 22:73-80, 2016).

Structures are written as SMILES. Bounds are passed on as bounds.

As a reminder, the Kd is the equilibrium constant for the complex coming apart.

JMJD3, sequence (O15054 whole entry, species assumed): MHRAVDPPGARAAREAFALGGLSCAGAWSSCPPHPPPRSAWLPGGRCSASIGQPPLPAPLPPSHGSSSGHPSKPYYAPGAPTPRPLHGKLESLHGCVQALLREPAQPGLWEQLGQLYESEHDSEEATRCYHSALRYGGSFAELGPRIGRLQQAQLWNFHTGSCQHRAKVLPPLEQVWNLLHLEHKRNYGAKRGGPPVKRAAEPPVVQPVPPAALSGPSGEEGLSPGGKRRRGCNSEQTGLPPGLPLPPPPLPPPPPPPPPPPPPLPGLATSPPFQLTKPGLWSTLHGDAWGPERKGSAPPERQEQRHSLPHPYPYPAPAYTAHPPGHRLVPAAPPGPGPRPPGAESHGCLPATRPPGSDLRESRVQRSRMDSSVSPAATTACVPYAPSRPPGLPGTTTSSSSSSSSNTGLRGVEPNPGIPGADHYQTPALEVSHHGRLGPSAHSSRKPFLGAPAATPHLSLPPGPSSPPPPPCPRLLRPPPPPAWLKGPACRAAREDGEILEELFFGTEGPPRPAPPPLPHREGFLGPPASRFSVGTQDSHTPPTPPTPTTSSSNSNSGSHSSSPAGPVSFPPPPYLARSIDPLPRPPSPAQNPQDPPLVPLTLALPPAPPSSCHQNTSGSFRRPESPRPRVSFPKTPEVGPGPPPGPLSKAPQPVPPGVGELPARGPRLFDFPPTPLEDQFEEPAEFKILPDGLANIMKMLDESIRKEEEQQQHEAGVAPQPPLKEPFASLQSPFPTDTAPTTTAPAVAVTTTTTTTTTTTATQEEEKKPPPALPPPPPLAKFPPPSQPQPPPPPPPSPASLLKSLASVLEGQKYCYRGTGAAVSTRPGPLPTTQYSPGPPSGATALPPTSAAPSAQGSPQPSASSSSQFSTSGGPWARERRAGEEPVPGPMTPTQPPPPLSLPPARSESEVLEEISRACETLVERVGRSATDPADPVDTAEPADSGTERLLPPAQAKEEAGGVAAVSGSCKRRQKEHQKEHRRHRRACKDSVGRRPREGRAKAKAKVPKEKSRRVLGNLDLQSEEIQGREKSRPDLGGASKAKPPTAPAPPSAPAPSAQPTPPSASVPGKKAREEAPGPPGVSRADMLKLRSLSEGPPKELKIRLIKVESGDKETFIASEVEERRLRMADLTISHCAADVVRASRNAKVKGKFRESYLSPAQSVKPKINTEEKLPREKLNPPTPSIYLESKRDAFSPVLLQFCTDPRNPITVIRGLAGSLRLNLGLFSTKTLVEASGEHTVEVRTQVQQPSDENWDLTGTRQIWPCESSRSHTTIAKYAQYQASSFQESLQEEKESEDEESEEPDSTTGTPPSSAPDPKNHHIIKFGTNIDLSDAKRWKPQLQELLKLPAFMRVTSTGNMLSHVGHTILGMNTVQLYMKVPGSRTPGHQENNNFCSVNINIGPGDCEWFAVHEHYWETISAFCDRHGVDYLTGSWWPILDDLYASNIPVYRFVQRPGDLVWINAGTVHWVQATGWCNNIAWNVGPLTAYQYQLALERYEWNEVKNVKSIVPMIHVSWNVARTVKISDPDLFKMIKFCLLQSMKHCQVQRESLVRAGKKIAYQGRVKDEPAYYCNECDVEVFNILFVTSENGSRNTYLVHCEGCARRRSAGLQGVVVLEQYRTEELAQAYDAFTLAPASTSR

For the compound `CCOC(=O)CCNc1nc(N2CCc3ccccc3CC2)nc(-n2cccn2)n1` [Compound 1, Ethyl 3-((4-(1H-pyrazol-1-yl)-6-(1,2,4,5-tetrahydro-3H-benzo[d]azepin-3-yl)-1,3,5-triazin-2-yl)amino)propanoate], at JMJD3, the equilibrium dissociation constant (Kd) was under 100 nM.

For the compound `CCOC(=O)CCNc1nc(-n2cccn2)nc(-n2cccn2)n1` [Compound 2, Ethyl 3-((4,6-di(1H-pyrazol-1-yl)-1,3,5-triazin-2-yl)amino)propanoate], the Kd on JMJD3 is 100 to 500 nM.

For the compound `CCOC(=O)CCNc1nc(-n2cccn2)nc(-n2ccc3ccccc32)n1` [Compound 6, Ethyl 3-((4-(1H-indol-1-yl)-6-(1H-pyrazol-1-yl)-1,3,5-triazin-2-yl)amino)propanoate], the Kd at JMJD3 is under 100 nM.

Turning to `CCOC(=O)CCNc1nc(-c2cc(F)cc(F)c2)nc(-n2cccn2)n1` [Compound 8, Ethyl 3-((4-(3,5-difluorophenyl)-6-(1H-pyrazol-1-yl)-1,3,5-triazin-2-yl)amino)propanoate], the Kd at JMJD3 was under 100 nM.

Turning to `c1ccc2c(c1)ccn2-c1nc(N2CCNC3(COC3)C2)nc(-n2cccn2)n1` [Compound 60, 8-(4-(1H-Indol-1-yl)-6-(1H-pyrazol-1-yl)-1,3,5-triazin-2-yl)-2-oxa-5,8-diazaspiro[3.5]nonane], the Kd at JMJD3 was under 100 nM.

With `CN1CCN(c2nc(-c3cc(F)cc(F)c3)nc(-n3cccn3)n2)CC1` [Compound 80, 2-(3,5-Difluorophenyl)-4-(4-methylpiperazin-1-yl)-6-(1H-pyrazol-1-yl)-1,3,5-triazine], at JMJD3, the Kd lay in the range of 100 to 500 nM.

Consider `COCCNc1nc(-n2cccn2)nc(-n2ccc3ccccc32)n1` [Compound 89, 4-(1H-indol-1-yl)-N-(2-methoxyethyl)-6-(1H-pyrazol-1-yl)-1,3,5-triazin-2-amine], for which the “suppression of TNF-alpha (TNFA) expression after LPS treatment” value (“suppression … after LPS treatment” below) in the experiment with THP-1 human monocytes [1] was “suppression”. In addition, on JMJD3, the Kd was under 100 nM.

Turning to `c1ccc2c(c1)ccn2-c1nc(N2CCNCC2)nc(-n2cccn2)n1` [Compound 90, 1-(4-(Piperazin-1-yl)-6-(1H-pyrazol-1-yl)-1,3,5-triazin-2-yl)-1H-indole], the Kd on JMJD3 fell in the range of 100 to 500 nM.

Turning to `NC(=O)CCNc1nc(-n2cccn2)nc(-n2ccc3ccccc32)n1` [Compound 91, 3-((4-(1H-Indol-1-yl)-6-(1H-pyrazol-1-yl)-1,3,5-triazin-2-yl)amino)propanamide], the “suppression … after LPS treatment” value in the experiment with THP-1 human monocytes [1] is given as “suppression”. The Kd on JMJD3 lay in the range of 100 to 500 nM.

With `Fc1cc(F)cc(-c2nc(N3CCOCC3)nc(-n3cccn3)n2)c1` [Compound 92, 4-(4-(3,5-Difluorophenyl)-6-(1H-pyrazol-1-yl)-1,3,5-triazin-2-yl)morpholine], in the experiment with THP-1 human monocytes [2], the “suppression of TNF-alpha (TNFA)” value is “suppression”, the “suppression of interleukin 1beta (IL1B)” value was “suppression”, the “suppression of interleukin 5 (IL5)” value is reported as “suppression” and the “suppression of interleukin 6 (IL6)” value is “suppression”. Moreover, in the experiment with THP-1 human monocytes [2], the “suppression of interleukin 8 (IL8)” value is listed as “suppression” and the “suppression of interleukin 13 (IL13)” value is “suppression”. In addition, in the experiment with Naïve CD4+ T human cells, the “FoxP3 expression levels (induction)” value is listed as 7 fold. In addition, in the experiment on THP-1 human monocytes [1], the “suppression … after LPS treatment” value is “suppression”. Further, at JMJD3, the Kd was 100 to 500 nM.

On to `Fc1cc(F)cc(-c2nc(N3CCC3)nc(-n3cccn3)n2)c1` [Compound 93, 2-(Azetidin-1-yl)-4-(3,5-difluorophenyl)-6-(1H-pyrazol-1-yl)-1,3,5-triazine], for which, in the experiment on THP-1 human monocytes [2], the “suppression of TNF-alpha (TNFA)” value is “suppression”, the “suppression of interleukin 1beta (IL1B)” value is “suppression”, the “suppression of interleukin 5 (IL5)” value is given as “suppression” and the “suppression of interleukin 6 (IL6)” value is recorded as “suppression”. Further, in the experiment on THP-1 human monocytes [2], the “suppression of interleukin 8 (IL8)” value was “suppression” and the “suppression of interleukin 13 (IL13)” value was “suppression”. In addition, in the experiment with Naïve CD4+ T human cells, the “FoxP3 expression levels (induction)” value is reported as 7 fold. Also, in the experiment with THP-1 human monocytes [1], the “suppression … after LPS treatment” value is given as “suppression”. Further, the Kd at JMJD3 is under 100 nM.

`c1ccc2c(c1)ccn2-c1nc(N2CCOCC2)nc(-n2cccn2)n1` [Compound 94, 4-(4-(1H-Indol-1-yl)-6-(1H-pyrazol-1-yl)-1,3,5-triazin-2-yl)morpholine]: in the experiment with THP-1 human monocytes [1], the “suppression … after LPS treatment” value is “suppression”. The Kd at JMJD3 lay within 100 to 500 nM.

On to `NC(=O)CCNc1nc(-c2cc(F)cc(F)c2)nc(-n2cccn2)n1` [Compound 96, 3-((4-(3,5-Difluorophenyl)-6-(1H-pyrazol-1-yl)-1,3,5-triazin-2-yl)amino)propanamide], for which the Kd at JMJD3 fell in the range of 100 to 500 nM.

Regarding `COCCCNc1nc(-n2cccn2)nc(-n2ccc3ccccc32)n1` [Compound 97, 4-(1H-Indol-1-yl)-N-(3-methoxypropyl)-6-(1H-pyrazol-1-yl)-1,3,5-triazin-2-amine], in the experiment with THP-1 human monocytes [1], the “suppression … after LPS treatment” value was “suppression”. Besides, the Kd on JMJD3 lay in the range of 100 to 500 nM.

On to `COCNc1nc(-n2cccn2)nc(-n2ccc3ccccc32)n1` [Compound 98, 4-(1H-indol-1-yl)-N-(methoxymethyl)-6-(1H-pyrazol-1-yl)-1,3,5-triazin-2-amine], for which, in the experiment with THP-1 human monocytes [2], the “suppression of TNF-alpha (TNFA)” value is reported as “suppression”, the “suppression of interleukin 1beta (IL1B)” value is listed as “suppression”, the “suppression of interleukin 5 (IL5)” value was “suppression” and the “suppression of interleukin 6 (IL6)” value is recorded as “suppression”. Besides, in the experiment with THP-1 human monocytes [2], the “suppression of interleukin 8 (IL8)” value is reported as “suppression” and the “suppression of interleukin 13 (IL13)” value is “suppression”. The “FoxP3 expression levels (induction)” value in the experiment on Naïve CD4+ T human cells stood at 7 fold.

As to `Fc1cc(F)cc(-c2nc(N3CCNCC3)nc(-n3cccn3)n2)c1` [Compound 99, 2-(3,5-difluorophenyl)-4-(piperazin-1-yl)-6-(1H-pyrazol-1-yl)-1,3,5-triazine], in the experiment with THP-1 human monocytes [2], the “suppression of TNF-alpha (TNFA)” value was “suppression”, the “suppression of interleukin 1beta (IL1B)” value is recorded as “suppression”, the “suppression of interleukin 5 (IL5)” value is given as “suppression” and the “suppression of interleukin 6 (IL6)” value is given as “suppression”. For the same compound, in the experiment with THP-1 human monocytes [2], the “suppression of interleukin 8 (IL8)” value is “suppression” and the “suppression of interleukin 13 (IL13)” value is reported as “suppression”. The “FoxP3 expression levels (induction)” value in the experiment on Naïve CD4+ T human cells is reported as 7 fold.
